Measured values reported in US20140162290A1, “PROBE FOR DETECTING DEAD CELL” (RIKEN, priority 2012, published 2014).

Tests used:
[1] = target: T1, human Tim4 wild-type IgG Fc fusion protein hTim4-Fc (181 mucin domain residues), SEQ ID NO: 49 (Homo sapiens, UniProt Q96H15, D300G/G301W/M299D/Q298T/V240A); assay: ELISA, binding capacity of hTim4-Fc to PS; conditions: n = 2
T1 construct: made in house; host or cells: Freestyle 293F cells
Method: Using a vector encoding the hTim4 sequence (pCMV6-XL5 Homo sapiens T-cell immunoglobulin and mucin domain containing 4, transcript variant 1 as transfection-ready DNA, OriGene Technologies) as a template, and a primer containing an EcoRV restriction site at 5′-end (SEQ ID NO:22) and a primer containing a BglII restriction site at 3′-end (SEQ ID NO:23), PCR was performed. The obtained PCR product and pFUSE-hIgG1e3-Fc2 (InvivoGen) encoding the human IgG-Fc region were each digested with EcoRV and BglII, and the resulting digestion products were ligated to each other. E. coli (JM109, Takara Bio Inc.) was transformed with the resulting ligation product, and colonies were obtained. From the obtained colonies, plasmids were extracted, and the DNA sequences of the plasmids were analyzed. A colony having the hTim4 sequence inserted therein was subjected to large-scale culture, to obtain a vector. […]
(§1) The obtained vector of 37.5 μg was transfected into 30 mL of 1×10^6 cells/mL Freestyle 293F cells (Life technologies) using Freestyle MAX Reagent (Life technologies), and the cells were cultured with shaking at 37° C. under 8% CO2 for 4 days. […] The purified protein was subjected to SDS-PAGE, and the molecular weight under non-reducing conditions was calculated (Table 6). […]

[2] = target: T2, human Tim4 IgG Fc fusion protein, modified type hTim4-240-Fc (111 mucin domain residues), SEQ ID NO: 51 (Homo sapiens, UniProt Q96H15, V240A); assay: ELISA, binding capacity of hTim4-240-Fc to PS; conditions: n = 2
T2 construct: made in house; host or cells: Freestyle 293F cells
T2 sequence (Q96H15 with tags, fused parts or gaps V240A): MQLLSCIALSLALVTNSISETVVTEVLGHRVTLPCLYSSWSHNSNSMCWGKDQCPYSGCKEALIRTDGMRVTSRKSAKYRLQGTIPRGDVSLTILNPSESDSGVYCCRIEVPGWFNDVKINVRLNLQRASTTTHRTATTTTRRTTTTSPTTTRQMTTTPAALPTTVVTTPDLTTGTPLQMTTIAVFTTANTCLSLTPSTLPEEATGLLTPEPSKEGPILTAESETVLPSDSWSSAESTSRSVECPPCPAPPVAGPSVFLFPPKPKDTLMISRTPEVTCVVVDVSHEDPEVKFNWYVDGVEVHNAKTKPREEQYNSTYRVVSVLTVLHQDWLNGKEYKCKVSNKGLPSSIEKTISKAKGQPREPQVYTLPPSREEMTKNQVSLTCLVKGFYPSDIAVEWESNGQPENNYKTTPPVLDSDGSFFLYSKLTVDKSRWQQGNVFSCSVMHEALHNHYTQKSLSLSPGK
From the text: (§2) Using the primers shown in Table 4 and PrimeSTAR Mutagenesis Basal Kit (Takara Bio Inc.), vectors encoding fusion proteins having mucin domains with various lengths, in which the C-terminus and/or the N-terminus of the wild-type mucin domain was/were deleted. More specifically, phTim4-Fc was used as a template to prepare phTim4-240-Fc and phTim4-187-Fc; the obtained phTim4-187-Fc was used as a template to prepare phTim4-184-Fc, phTim4-181-Fc, phTim4-178-Fc, phTim4-175-Fc, phTim4-162-Fc, phTim4-149-Fc, phTim4-135-Fc, phTim4-130-Fc and phTim4-Δ131-187-Fc; the obtained phTim4-240-Fc was used as a template to prepare phTim4-Δ131-240-Fc; and the obtained phTim4-Δ131-187-Fc was used as a template to prepare phTim4-Δ131-187Δ241-310-Fc. […]
as §1
(§3) Into a 96-well plate, 100 μL of PS (0.5 mg/mL) or a solvent (methanol) was placed, and dried. […] An HRP-conjugated anti-human IgG-Fc antibody was used as a secondary antibody, and the absorbance due to coloring with TMB was measured using a microplate reader. […]

[3] = target: T3, human Tim4 IgG Fc fusion protein, modified type hTim4-Δ131-240-Fc (55 mucin domain residues), SEQ ID NO: 55 (Homo sapiens, UniProt Q96H15, DEL135-260); assay: ELISA, binding capacity of hTim4-Δ131-240-Fc to PS; conditions: n = 2
T3 construct: made in house; host or cells: Freestyle 293F cells
T3 sequence (Q96H15 with tags, fused parts or gaps DEL135-260 limits assumed): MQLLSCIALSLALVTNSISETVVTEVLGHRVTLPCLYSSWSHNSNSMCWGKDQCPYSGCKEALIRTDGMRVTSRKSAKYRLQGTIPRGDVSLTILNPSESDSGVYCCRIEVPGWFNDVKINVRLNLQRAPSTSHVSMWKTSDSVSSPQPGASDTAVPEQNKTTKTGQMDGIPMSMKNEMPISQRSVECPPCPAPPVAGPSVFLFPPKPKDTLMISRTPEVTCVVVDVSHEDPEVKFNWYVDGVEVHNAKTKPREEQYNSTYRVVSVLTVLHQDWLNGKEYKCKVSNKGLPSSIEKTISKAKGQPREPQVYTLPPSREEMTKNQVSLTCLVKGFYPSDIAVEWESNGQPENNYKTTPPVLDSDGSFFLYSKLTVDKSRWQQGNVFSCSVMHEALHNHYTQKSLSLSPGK
From the text: as §2, §1, §3

[4] = target: T4, human Tim4 IgG Fc fusion protein, modified type hTim4-Δ131-187Δ241-310-Fc (58 mucin domain residues), SEQ ID NO: 57 (Homo sapiens, UniProt Q96H15, DEL135-187/V240A); assay: ELISA, binding capacity of hTim4-Δ131-187Δ241-310-Fc to PS; conditions: n = 2
T4 construct: made in house; host or cells: Freestyle 293F cells
T4 sequence (Q96H15 with tags, fused parts or gaps DEL135-187/V240A limits assumed): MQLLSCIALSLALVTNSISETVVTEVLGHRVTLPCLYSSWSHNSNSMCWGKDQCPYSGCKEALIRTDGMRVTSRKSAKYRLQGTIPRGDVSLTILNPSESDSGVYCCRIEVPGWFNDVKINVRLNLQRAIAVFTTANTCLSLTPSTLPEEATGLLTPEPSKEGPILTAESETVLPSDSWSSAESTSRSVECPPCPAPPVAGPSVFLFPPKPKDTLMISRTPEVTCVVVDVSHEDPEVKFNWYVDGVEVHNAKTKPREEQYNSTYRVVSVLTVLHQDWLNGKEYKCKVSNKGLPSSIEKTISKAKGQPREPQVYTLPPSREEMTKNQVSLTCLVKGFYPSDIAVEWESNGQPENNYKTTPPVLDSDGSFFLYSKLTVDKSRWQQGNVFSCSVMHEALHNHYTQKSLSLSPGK
From the text: as §2, §1, §3

[5] = target: T5, human Tim4 IgG Fc fusion protein, modified type hTim4-187-Fc (58 mucin domain residues), SEQ ID NO: 59 (Homo sapiens, UniProt Q96H15); assay: ELISA, binding capacity of hTim4-187-Fc to PS; conditions: n = 2
T5 construct: made in house; host or cells: Freestyle 293F cells
T5 sequence (Q96H15 with tags, fused parts or gaps): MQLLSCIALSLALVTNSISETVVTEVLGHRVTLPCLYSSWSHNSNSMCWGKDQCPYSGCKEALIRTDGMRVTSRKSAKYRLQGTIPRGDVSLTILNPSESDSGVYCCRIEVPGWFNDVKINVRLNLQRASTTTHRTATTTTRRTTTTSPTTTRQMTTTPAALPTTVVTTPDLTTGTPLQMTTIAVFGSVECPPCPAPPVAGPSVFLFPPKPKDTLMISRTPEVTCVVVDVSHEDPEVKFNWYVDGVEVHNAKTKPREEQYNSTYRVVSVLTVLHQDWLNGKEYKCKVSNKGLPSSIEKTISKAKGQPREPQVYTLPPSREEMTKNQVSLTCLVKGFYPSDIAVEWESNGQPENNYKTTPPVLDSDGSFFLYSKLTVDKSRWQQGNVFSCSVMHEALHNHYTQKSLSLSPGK
From the text: as §2, §1, §3

[6] = target: T6, human Tim4 IgG Fc fusion protein, modified type hTim4-184-Fc (55 mucin domain residues), SEQ ID NO: 61 (Homo sapiens, UniProt Q96H15); assay: ELISA, binding capacity of hTim4-184-Fc to PS; conditions: n = 2
T6 construct: made in house; host or cells: Freestyle 293F cells
T6 sequence (Q96H15 with tags, fused parts or gaps): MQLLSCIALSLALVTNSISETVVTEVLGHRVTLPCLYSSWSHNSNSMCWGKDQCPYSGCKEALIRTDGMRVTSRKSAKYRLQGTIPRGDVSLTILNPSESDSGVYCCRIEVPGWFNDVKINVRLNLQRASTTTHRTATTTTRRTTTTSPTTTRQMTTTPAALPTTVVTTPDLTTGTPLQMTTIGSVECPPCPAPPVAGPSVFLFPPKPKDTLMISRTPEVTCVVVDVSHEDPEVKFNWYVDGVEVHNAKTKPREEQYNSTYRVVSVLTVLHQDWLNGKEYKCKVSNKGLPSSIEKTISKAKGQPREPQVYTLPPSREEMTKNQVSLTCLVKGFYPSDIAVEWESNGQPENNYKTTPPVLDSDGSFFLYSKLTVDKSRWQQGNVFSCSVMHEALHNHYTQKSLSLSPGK
From the text: as §2, §1, §3

[7] = target: T7, human Tim4 IgG Fc fusion protein, modified type hTim4-181-Fc (52 mucin domain residues), SEQ ID NO: 63 (Homo sapiens, UniProt Q96H15); assay: ELISA, binding capacity of hTim4-181-Fc to PS; conditions: n = 2
T7 construct: made in house; host or cells: Freestyle 293F cells
T7 sequence (Q96H15 with tags, fused parts or gaps): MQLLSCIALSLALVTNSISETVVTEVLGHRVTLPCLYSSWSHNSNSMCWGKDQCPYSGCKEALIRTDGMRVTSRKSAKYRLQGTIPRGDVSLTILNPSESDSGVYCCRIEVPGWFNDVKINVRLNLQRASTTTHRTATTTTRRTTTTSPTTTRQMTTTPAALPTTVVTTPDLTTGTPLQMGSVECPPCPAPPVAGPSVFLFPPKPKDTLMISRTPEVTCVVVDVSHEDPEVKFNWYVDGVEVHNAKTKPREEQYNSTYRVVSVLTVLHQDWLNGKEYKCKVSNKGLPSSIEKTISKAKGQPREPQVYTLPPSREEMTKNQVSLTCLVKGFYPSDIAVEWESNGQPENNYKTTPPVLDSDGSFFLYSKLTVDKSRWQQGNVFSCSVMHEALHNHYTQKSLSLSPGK
From the text: as §2, §1, §3

[8] = target: T8, human Tim4 IgG Fc fusion protein, modified type hTim4-178-Fc (49 mucin domain residues), SEQ ID NO: 65 (Homo sapiens, UniProt Q96H15); assay: ELISA, binding capacity of hTim4-178-Fc to PS; conditions: n = 2
T8 construct: made in house; host or cells: Freestyle 293F cells
T8 sequence (Q96H15 with tags, fused parts or gaps): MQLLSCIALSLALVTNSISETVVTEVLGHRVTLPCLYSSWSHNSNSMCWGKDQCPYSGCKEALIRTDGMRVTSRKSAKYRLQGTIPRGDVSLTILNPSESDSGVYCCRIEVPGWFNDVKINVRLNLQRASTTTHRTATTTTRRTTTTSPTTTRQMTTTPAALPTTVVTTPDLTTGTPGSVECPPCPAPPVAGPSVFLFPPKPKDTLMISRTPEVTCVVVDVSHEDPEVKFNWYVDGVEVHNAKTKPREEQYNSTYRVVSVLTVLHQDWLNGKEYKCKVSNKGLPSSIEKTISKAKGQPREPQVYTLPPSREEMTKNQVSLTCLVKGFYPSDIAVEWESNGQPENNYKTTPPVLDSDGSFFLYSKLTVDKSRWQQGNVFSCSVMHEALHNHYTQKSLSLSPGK
From the text: as §2, §1, §3

[9] = target: T9, human Tim4 IgG Fc fusion protein, modified type hTim4-175-Fc (46 mucin domain residues), SEQ ID NO: 67 (Homo sapiens, UniProt Q96H15); assay: ELISA, binding capacity of hTim4-175-Fc to PS; conditions: n = 2
T9 construct: made in house; host or cells: Freestyle 293F cells
T9 sequence (Q96H15 with tags, fused parts or gaps): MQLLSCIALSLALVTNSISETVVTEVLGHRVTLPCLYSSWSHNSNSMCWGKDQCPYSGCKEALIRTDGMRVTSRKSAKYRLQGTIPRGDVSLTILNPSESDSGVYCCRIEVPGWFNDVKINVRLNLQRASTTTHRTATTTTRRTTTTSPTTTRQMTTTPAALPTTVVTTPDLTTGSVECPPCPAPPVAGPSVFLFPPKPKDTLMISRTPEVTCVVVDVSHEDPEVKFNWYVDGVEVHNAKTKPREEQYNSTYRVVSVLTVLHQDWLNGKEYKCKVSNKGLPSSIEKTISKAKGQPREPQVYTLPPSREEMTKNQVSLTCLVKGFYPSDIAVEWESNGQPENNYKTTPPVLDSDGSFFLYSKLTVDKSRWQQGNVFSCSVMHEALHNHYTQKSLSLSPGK
From the text: as §2, §1, §3

[10] = target: T10, human Tim4 IgG Fc fusion protein, modified type hTim4-240-Fc, SEQ ID NO: 51 (Homo sapiens, UniProt Q96H15, V240A); assay: Dot blotting, binding of hTim4-240-Fc to PS; conditions: 0.15 μg of PS spotted; fusion protein 0.5 μg/mL, 4° C. overnight
T10 construct: replaced N-terminal leader; Freestyle 293F, purified
T10 sequence (Q96H15 with tags, fused parts or gaps V240A): as the sequence (Q96H15 with tags, fused parts or gaps V240A) above
Method: (§4) Dot blotting was carried out by the following procedure to evaluate the binding capacity of each fusion protein (hTim4-Fc) prepared as described above to PS. On a PVDF membrane (GE Healthcare) with a size of 10 mm×10 mm, 0.15 μg of PS was spotted, and the resulting membrane was incubated in 500 μL of a blocking buffer (5% skim milk—PBS-T) in a 24-well plate at room temperature for 1 hour, to perform blocking. To the blocking buffer in the well, each fusion protein was added at a final concentration of 0.5 μg/mL, and incubation was carried out at 4° C. overnight. A control was provided by use of only the blocking buffer. Thereafter, the PVDF membrane was washed 5 times with 2 mL of PBS-T, and incubated at room temperature for 2 hours in an HRP-conjugated anti-human IgG-Fc antibody (Bethyl) solution which was 10000-fold diluted with 500 μL of the blocking buffer. Subsequently, the membrane was washed 5 times with 2 mL of PBS-T, followed by chemiluminescence using ECL prime (GE healthcare) and detection using LAS 3000 (Fujifilm).

[11] = target: T11, human Tim4 IgG Fc fusion protein, modified type hTim4-187-Fc, SEQ ID NO: 59 (Homo sapiens, UniProt Q96H15); assay: Dot blotting, binding of hTim4-187-Fc to PS; conditions: 0.15 μg of PS spotted; fusion protein 0.5 μg/mL, 4° C. overnight
T11 construct: replaced N-terminal leader; Freestyle 293F, purified
Method: as §4

[12] = target: T12, human Tim4 IgG Fc fusion protein, modified type hTim4-184-Fc, SEQ ID NO: 61 (Homo sapiens, UniProt Q96H15); assay: Dot blotting, binding of hTim4-184-Fc to PS; conditions: 0.15 μg of PS spotted; fusion protein 0.5 μg/mL, 4° C. overnight
T12 construct: replaced N-terminal leader; Freestyle 293F, purified
Method: as §4

[13] = target: T13, human Tim4 IgG Fc fusion protein, modified type hTim4-181-Fc, SEQ ID NO: 63 (Homo sapiens, UniProt Q96H15); assay: Dot blotting, binding of hTim4-181-Fc to PS; conditions: 0.15 μg of PS spotted; fusion protein 0.5 μg/mL, 4° C. overnight
T13 construct: replaced N-terminal leader; Freestyle 293F, purified
Method: as §4

[14] = target: T14, human Tim4 IgG Fc fusion protein, modified type hTim4-178-Fc, SEQ ID NO: 65 (Homo sapiens, UniProt Q96H15); assay: Dot blotting, binding of hTim4-178-Fc to PS; conditions: 0.15 μg of PS spotted; fusion protein 0.5 μg/mL, 4° C. overnight
T14 construct: replaced N-terminal leader; Freestyle 293F, purified
Method: as §4

[15] = target: T15, human Tim4 IgG Fc fusion protein, modified type hTim4-175-Fc, SEQ ID NO: 67 (Homo sapiens, UniProt Q96H15); assay: Dot blotting, binding of hTim4-175-Fc to PS; conditions: 0.15 μg of PS spotted; fusion protein 0.5 μg/mL, 4° C. overnight
T15 construct: replaced N-terminal leader; Freestyle 293F, purified
Method: as §4

[16] = target: T11, human Tim4 IgG Fc fusion protein, modified type hTim4-187-Fc, SEQ ID NO: 59; assay: Dot blotting, binding specificity of hTim4-187-Fc to various phospholipids; conditions: PE, PC, PI and PS spotted, 1 μL of 100 pmol/μL each; fusion protein 0.5 μg/mL, room temperature 2 hours
Method: Dot blotting was carried out by the following procedure to evaluate the binding capacity of the fusion protein of the present invention to various phospholipids.
On a PVDF membrane (GE Healthcare), 1 μL each of 100 pmol/μL 3-sn-phosphatidylethanolamine (PE), L-α-phosphatidylcholine (PC), L-α-phosphatidylinositol (PI), and 3-sn-phosphatidyl-L-serine (Sigma Aldrich) were spotted, and the resulting membrane was incubated in 2 mL of a blocking buffer (5% skim milk—PBS-T) at room temperature for 1 hour, to perform blocking. To the blocking buffer in each well, hTim4-187-Fc was added at a final concentration of 0.5 μg/mL, and incubation was carried out at room temperature for 2 hours. Thereafter, the PVDF membrane was washed 5 times with 5 mL of PBS-T, and incubated at room temperature for 2 hours in an HRP-conjugated anti-human IgG-Fc antibody (Bethyl) solution which was 10000-fold diluted with 2 mL of the blocking buffer. Subsequently, the membrane was washed 5 times with 5 mL of PBS-T, followed by chemiluminescence using ECL prime (GE healthcare) and detection using LAS 3000 (Fujifilm).

A431 tumor = assay: Diagnosis of apoptosis in target tissue (TUNEL and activated caspase 3 staining of tumor sections); type: in vivo, mouse (Balb/c-Ajcl-nu/nu); conditions: MMC 5 mg/6.25 mL/kg via tail vein, one, 3 and 5 days before the RI-labeled product
From the text: Male Balb/c-Ajcl-nu/nu mice of 5 to 6 weeks old (CLEA Japan, Inc.) were provided, and divided into two groups (the MMC administration group and the vehicle group; 3 individuals per group). A431 cells were inoculated into the left femoral region of each mouse, 2 to 3 weeks before the PET experiment for the MMC administration group, or 10 days to 2 weeks before the PET experiment for the vehicle group. Individuals of which the tumor size became […] on the day before the administration of the RI-labeled product were subjected to the PET experiment. One day, 3 days, and 5 days before the administration of the RI-labeled product, MMC (mitomycin C) was administered via the tail vein at an amount of 5 mg/6.25 mL/kg for the MMC administration group, and physiological saline was administered at amount of 6.25 mL/kg for the vehicle group.
After the completion of the PET experiment, the tumor was isolated from each mouse, and frozen sections were prepared. The prepared frozen sections were fixed with cold methanol, and stored at −20° C. until use. The sections were used for the experiment within 3 to 5 days after the dissection.
The frozen sections were subjected to blocking using Protein Block, Serum-Free (Dako), and then subjected to TUNEL staining using DeadEnd Fluorometric TUNEL System (Promega). […]

[17] = 10-fold dilution series of the fusion protein on PS-coated plate, read-out: EC50 ± SE (50% effective concentration)

T1 sequence (Q96H15 with tags, fused parts or gaps V240A/Q298T/M299D/D300G/G301W): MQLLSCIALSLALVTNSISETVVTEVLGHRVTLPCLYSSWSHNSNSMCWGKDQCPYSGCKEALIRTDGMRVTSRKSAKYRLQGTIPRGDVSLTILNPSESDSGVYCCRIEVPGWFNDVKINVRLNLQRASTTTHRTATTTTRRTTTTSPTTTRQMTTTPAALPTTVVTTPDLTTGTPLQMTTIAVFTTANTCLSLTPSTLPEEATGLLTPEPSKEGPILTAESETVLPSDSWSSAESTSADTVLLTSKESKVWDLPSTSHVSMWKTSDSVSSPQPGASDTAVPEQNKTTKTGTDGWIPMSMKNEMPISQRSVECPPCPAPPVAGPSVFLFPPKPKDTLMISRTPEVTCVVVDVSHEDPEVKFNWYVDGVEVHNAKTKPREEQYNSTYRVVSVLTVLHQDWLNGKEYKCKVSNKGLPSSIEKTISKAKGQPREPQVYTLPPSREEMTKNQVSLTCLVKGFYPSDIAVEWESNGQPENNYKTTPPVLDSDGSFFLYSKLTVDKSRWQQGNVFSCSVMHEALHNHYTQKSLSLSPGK

3-sn-phosphatidyl-L-serine [PS]
EC50 [1, 17]: 0.0002 µM
Bmax ± SE (maximum binding amount) ([1]; PS-coated plate): 0.00 ± 0.00 Abs 450 nm
EC50 [2, 17]: 0.0071 ± 0.0149 µM
Bmax ± SE (maximum binding amount) ([2]; PS-coated plate): 0.01 ± 0.01 Abs 450 nm
EC50 [3, 17]: 0.148 ± 0.0858 µM
Bmax ± SE (maximum binding amount) ([3]; PS-coated plate): 0.07 ± 0.02 Abs 450 nm
EC50 [4, 17]: 0.132 ± 0.305 µM
Bmax ± SE (maximum binding amount) ([4]; PS-coated plate): 0.02 ± 0.03 Abs 450 nm
EC50 [5, 17]: 0.0628 ± 0.0202 µM
Bmax ± SE (maximum binding amount) ([5]; PS-coated plate): 1.02 ± 0.14 Abs 450 nm
EC50 [6, 17]: 0.1 ± 0.0452 µM
Bmax ± SE (maximum binding amount) ([6]; PS-coated plate): 0.84 ± 0.17 Abs 450 nm
EC50 [7, 17]: 0.0475 ± 0.0062 µM
Bmax ± SE (maximum binding amount) ([7]; PS-coated plate): 0.74 ± 0.04 Abs 450 nm
EC50 [8, 17]: 0.067 ± 0.0548 µM
Bmax ± SE (maximum binding amount) ([8]; PS-coated plate): 0.63 ± 0.22 Abs 450 nm
EC50 [9, 17]: 0.0762 ± 0.0195 µM
Bmax ± SE (maximum binding amount) ([9]; PS-coated plate): 0.77 ± 0.08 Abs 450 nm
binding to PS [10]: binding to PS was confirmed
binding to PS [11]: binding to PS was confirmed
binding to PS [12]: binding to PS was confirmed
binding to PS [13]: binding to PS was confirmed
binding to PS [14]: binding to PS was confirmed
binding to PS [15]: binding to PS was confirmed
binding specificity to PS among phospholipids [16]: binds to only PS

CO[C@@]12[C@H](COC(N)=O)C3=C(C(=O)C(C)=C(N)C3=O)N1C[C@@H]1N[C@@H]12 [MMC, mitomycin C]
occurrence of apoptosis in the tumor (A431 tumor): occurrence of apoptosis in the tumor of the MMC-administered individuals was confirmed
